# Reference: BindingDB's records for doi:10.7270/Q2WS8RVZ (Burnham Center For Chemical Genomics, 2012)
# pIC50: −log10 of the molar value.
# Target: Endothelial PAS domain-containing protein 1 (Homo sapiens, UniProt Q99814)
# Sequence (Q99814 whole entry, the tested form may be a part): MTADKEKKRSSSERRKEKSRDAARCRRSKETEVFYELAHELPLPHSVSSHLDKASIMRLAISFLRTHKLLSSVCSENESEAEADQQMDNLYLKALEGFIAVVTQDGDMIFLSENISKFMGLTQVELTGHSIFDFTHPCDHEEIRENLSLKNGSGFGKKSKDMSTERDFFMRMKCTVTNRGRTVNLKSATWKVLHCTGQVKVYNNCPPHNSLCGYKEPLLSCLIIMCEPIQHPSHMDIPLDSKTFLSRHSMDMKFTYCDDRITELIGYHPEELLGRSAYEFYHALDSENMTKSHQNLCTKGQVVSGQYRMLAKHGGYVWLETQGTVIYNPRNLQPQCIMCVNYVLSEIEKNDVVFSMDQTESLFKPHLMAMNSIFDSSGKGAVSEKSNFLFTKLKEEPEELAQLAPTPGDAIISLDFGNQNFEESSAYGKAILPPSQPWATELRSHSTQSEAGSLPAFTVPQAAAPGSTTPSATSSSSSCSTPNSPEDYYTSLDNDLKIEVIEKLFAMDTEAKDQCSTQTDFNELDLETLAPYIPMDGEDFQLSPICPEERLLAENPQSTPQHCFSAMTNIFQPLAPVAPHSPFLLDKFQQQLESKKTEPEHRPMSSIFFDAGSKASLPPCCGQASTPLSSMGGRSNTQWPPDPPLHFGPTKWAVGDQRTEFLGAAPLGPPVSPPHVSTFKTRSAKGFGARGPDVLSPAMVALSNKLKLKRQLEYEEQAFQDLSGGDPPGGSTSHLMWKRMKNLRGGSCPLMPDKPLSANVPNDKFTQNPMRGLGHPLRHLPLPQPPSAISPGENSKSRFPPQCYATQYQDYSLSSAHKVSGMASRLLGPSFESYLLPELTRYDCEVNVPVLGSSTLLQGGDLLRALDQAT
row,SMILES,pIC50
1,"CCOC(=O)Cc1csc(N=NCc2ccc(C(F)(F)F)cc2)n1 [ethyl 2-[2-[(2E)-2-[[4-(trifluoromethyl)phenyl]methylidene]hydrazinyl]-1,3-thiazol-4-yl]ethanoate]",4.30
2,COc1cc(CN=O)ccc1OCc1ccc(C(=O)O)cc1 [4-[[4-(hydroximinomethyl)-2-methoxy-phenoxy]methyl]benzoic acid],5.37
3,O=C(O)c1cccc(N=NCc2cccs2)c1 [3-[(N'E)-N'-(2-thenylidene)hydrazino]benzoic acid],5.24
4,c1ccc(CN=Nc2ccc3ccccc3n2)nc1 [SMR002048648],5.25
5,Cc1nn(-c2ccccc2Cl)c(Cl)c1CN=Nc1cccc(C(=O)O)c1 [3-[2-[[5-chloro-1-(2-chlorophenyl)-3-methylpyrazol-4-yl]methylidene]hydrazinyl]benzoic acid],4.62
6,CC(C)(C)c1ccc(CN=Nc2ccc(C(=O)O)cc2)cc1,4.30
7,Cc1nn(-c2ccccc2)c(Cl)c1CN=Nc1ccc(Cl)c(C(=O)O)c1 [2-chloro-5-[2-[(5-chloro-3-methyl-1-phenylpyrazol-4-yl)methylidene]hydrazinyl]benzoic acid],4.19
8,CSc1ccc(CN=Nc2cccc(C(=O)O)c2)cc1 [3-[(N'E)-N'-[4-(methylthio)benzylidene]hydrazino]benzoic acid],5.27

# Continued by rising pIC50, values first:
row,pIC50,SMILES
1,4.19,Cc1ccc(CN=Nc2cccc(C(=O)O)c2)s1
2,4.19,O=C(O)c1ccc(N=NCc2ccc3ncccc3c2)cc1
3,5.01,O=C(O)c1ccc(N=NCc2ccc(C(F)(F)F)cc2)cc1 [sulfuric acid;4-[(N'E)-N'-[4-(trifluoromethyl)benzylidene]hydrazino]benzoic acid]
4,5.09,COc1cccc(C/N=N/c2ncccc2[N+](=O)[O-])c1OC [SMR000461041]
5,5.30,O=C(O)c1cc(N=NCc2ccc3c(c2)OCCO3)ccc1Cl [SMR000242957]
6,5.37,CCOc1cc(CN=Nc2cccc(C(=O)O)c2)ccc1OC(=O)c1ccccc1 [3-[(N''E)-N''-(4-benzoyloxy-3-ethoxy-benzylidene)hydrazino]benzoic acid]
7,5.39,CC(C)c1ccc(CN=Nc2ccc(C(=O)O)cc2)cc1 [4-[2-[(4-propan-2-ylphenyl)methylidene]hydrazinyl]benzoic acid]
